In patent US10376531B2, “Substituted-6,8-dioxabicyclo[3.2.1]octane-2,3-diol compounds as targeting agents of ASGPR” (Pfizer Inc., priority 2014, dated 2019):
Several values for one entry are separate records, joined by “and”; a condition that tells them apart may be missing. Equal entries are not always repeated.

Each compound was assayed against Biotinylated ASGPR (ASGPr H1 wild type) (Homo sapiens (Human), UniProt P07306) (assay: Surface plasmon resonance (SPR) binding assay). Details: Biacore 3000, 25° C, immobilized biotinylated ASGPR, each run separately reported or n and standard deviation noted, steady state fit for compounds and single conjugates, kinetic fit for multimeric conjugates.
Chain of Biotinylated ASGPR (ASGPr H1 wild type) (P07306 161-278): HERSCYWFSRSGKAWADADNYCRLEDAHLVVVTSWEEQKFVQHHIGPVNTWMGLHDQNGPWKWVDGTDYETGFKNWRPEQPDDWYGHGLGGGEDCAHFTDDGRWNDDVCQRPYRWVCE
Procedure: Preparation of Biotinylated ASGPR:
ASGPr H1 wild type was expressed as an insoluble inclusion body (IB) in E. coli. The cell pellet was re-suspended in TBS buffer pH 8.0 with 0.1 mg/mL lysozyme+25 microg/mL DNase+10 microg/mL RNase+10 mM MgCl2 and stirred on ice until well blended. The mixture was passed through a microfluidizer twice and centrifuged 30 minutes at 30,000×g. The resultant IB pellet was washed with TBS buffer pH 8.0+3M urea and centrifuged and this process was repeated three additional times with water. The IB pellet was
solubilized in 10 mM Tris+8M urea+100 mM β-mercaptoethanol (pH 8.5), stirred for approximately 20 minutes, then centrifuged to discard any precipitate. For the following manipulations, “buffer T” refers to 20 mM Tris+0.5 M NaCl+25 mM CaCl2. The supernatant was diluted to approximately 0.5 mg/mL in buffer T+2 mM β-mercaptoethanol+8M urea (pH 8.0), then dialysed vs. 8-10× excess volume of buffer T+2 mM β-mercaptoethanol+2 M urea (pH 8.0) overnight at 4° C. Dialysis was repeated in buffer T+1 mM β-mercaptoethanol+1 M urea (pH 8.0) for approximately 24 h at 4° C. with several volume changes with a final dialysis vs. buffer T+5 mM GSH+1 mM GSSG (pH 7.5) with 3 volume changes. The resulting sample was centrifuged and the supernatant was loaded onto an N-acetyl-D-galactosamine agarose packed Pharmacia XK 26 column, equilibrated in buffer T+2 mM TCEP (pH 8.0). The column was washed with this buffer until baseline was re-established. The bound protein was eluted with 20 mM Tris+0.5 M NaCl+2 mM TCEP+2 mM EDTA (pH 8.0). The final yield was approximately 50 mg from 5 L (70 wgm.) E. coli cell pellet. While BSA has one cysteine (Cys34) not engaged in disulfide bonding, this thiol group is often blocked as a mixed disulfide with small thiols such as cysteine, or as the sulfenic acid by aerobic oxidation. […] Mild disulfide reduction conditions were chosen so as not to disrupt buried intra-strand (solvent inaccessible) crosslinks. Thus, immediately prior to biotinylation, the ASGPR sample was first incubated with 1 mM TCEP to ensure that the sample contained a single free thiol. The protein was reacted with a 19-fold molar excess of Pierce Maleimide-PEG2-biotin reagent in PBS overnight at 4° C. Excess biotin was removed from the sample using either PD-10 columns (GE Healthcare) or Zeba Spin Desalting columns (Thermo/Pierce) using manufacturer protocols. LC-MS analysis of the product verified the presence of a single mass with addition of 525 amu consistent with the molecular weight of the maleimide adduct. […] No such outcomes were observed. […] SPR Binding Measurements:
All SPR measurements with compounds were performed using a Biacore 3000 (GE Healthcare) at 25° C. Biotinylated ASGPR was immobilized typically at 2000-3000 resonance units (Ru) using either SA sensor chips (GE Healthcare) or custom sensor chips with Neutravidin (Pierce Biochemical) immobilized by standard amine coupling to CM5 sensor chips (GE Healthcare). The running buffer was HBS (10 mM HEPES, 150 mM NaCl), 20 mM CaCl2, 0.01% p20, 3% DMSO or 50 mM tris, 150 mM NaCl, 50 mM CaCl2), 0.01% p20, 3% DMSO pH 7.5. Compounds were diluted into running buffer at a concentration of 900 uM and serially diluted 3 fold to 3.7 uM. Compound solutions were injected at 50 ul/min for 1 min followed by a 1 min dissociation in duplicate for each concentration. For the multimeric conjugates (dimers, trimers), the conjugates were diluted in running buffer to concentrations of 100 nM or 10 nM and serially diluted. Conjugates were injected for 2 min and off rates were detected for 300 or 600 sec. After completion of off phase data the compounds were displaced using an injection of 900 uM GalNAc returning the receptor surface to the free state. All data was processed using Scrubber2 (Biologic Software, Inc.) to zero, align, reference and correct for excluded volume effects. […]
[N-]=[N+]=N[C@H]1[C@H]2OC[C@](CO)(O2)[C@H](O)[C@@H]1O [Compound 1, (1S,2R,3R,4R,5S)-4-azido-1-(hydroxymethyl)-6,8-dioxabicyclo[3.2.1]octane-2,3-diol] gave a Kd of 9 µM.
With CC(=O)N[C@H]1[C@H]2OC[C@](CO)(O2)[C@H](O)[C@@H]1O [Compound 3, N-((1S,2R,3R,4R,5S)-2,3-dihydroxy-1-(hydroxymethyl)-6,8-dioxabicyclo[3.2.1]octan-4-yl)acetamide] the Kd was 7.18 µM.
With CCOC[C@@]12CO[C@@H](O1)[C@H](NC(C)=O)[C@@H](O)[C@H]2O [Compound 17, N-[(1S,2R,3R,4R,5S)-1-(ethoxymethyl)-2,3-dihydroxy-6,8-dioxabicyclo[3.2.1]oct-4-yl]acetamide] the Kd was 5.3 µM and 3.4 µM and 2.6 µM.
With CCCOC[C@@]12CO[C@@H](O1)[C@H](NC(C)=O)[C@@H](O)[C@H]2O [Compound 18, N-[(1S,2R,3R,4R,5S)-2,3-dihydroxy-1-(propoxymethyl)-6,8-dioxabicyclo[3.2.1]oct-4-yl]acetamide] the Kd was 2.8 µM and 3.8 µM and 3.1 µM and 2.3 µM.
With CCCCOC[C@@]12CO[C@@H](O1)[C@H](NC(C)=O)[C@@H](O)[C@H]2O [Compound 19, N-[(1S,2R,3R,4R,5S)-1-(butoxymethyl)-2,3-dihydroxy-6,8-dioxabicyclo[3.2.1]oct-4-yl]acetamide] the Kd was 3.3 µM and 3.2 µM and 7.7 µM.
In the case of CCCCCOC[C@@]12CO[C@@H](O1)[C@H](NC(C)=O)[C@@H](O)[C@H]2O [Compound 20, N-{(1S,2R,3R,4R,5S)-2,3-dihydroxy-1-[(pentyloxy)methyl]-6,8-dioxabicyclo[3.2.1]oct-4-yl}acetamide], the Kd is reported as 2.18 µM and 3.8 µM and 4.2 µM.
In the case of CCCCCCOC[C@@]12CO[C@@H](O1)[C@H](NC(C)=O)[C@@H](O)[C@H]2O [Compound 21, N-{(1S,2R,3R,4R,5S)-1-[(hexyloxy)methyl]-2,3-dihydroxy-6,8-dioxabicyclo[3.2.1]oct-4-yl}acetamide], the Kd is reported as 3.4 µM and 1.8 µM.
In the case of COCCOCCOCCOCCOC[C@@]12CO[C@@H](O1)[C@H](NC(C)=O)[C@@H](O)[C@H]2O [Compound 22, N-[(1S,2R,3R,4R,5S)-2,3-dihydroxy-1-(2,5,8,11,14-pentaoxapentadec-1-yl)-6,8-dioxabicyclo[3.2.1]oct-4-yl]acetamide], the Kd is reported as 5.5 µM and 7.2 µM and 6.7 µM.
For O=C(N[C@H]1[C@H]2OC[C@](CO)(O2)[C@H](O)[C@@H]1O)C(F)(F)F [Compound 24, N-[(1S,2R,3R,4R,5S)-2,3-dihydroxy-1-(hydroxymethyl)-6,8-dioxabicyclo[3.2.1]oct-4-yl]-2,2,2-trifluoroacetamide], the Kd was 1.1 µM and 2 µM and 2.3 µM and 1.4 µM (2×) and 700 nM and 800 nM and 1.6 µM.
CCC(=O)N[C@H]1[C@H]2OC[C@](CO)(O2)[C@H](O)[C@@H]1O [Compound 25, N-[(1S,2R,3R,4R,5S)-2,3-dihydroxy-1-(hydroxymethyl)-6,8-dioxabicyclo[3.2.1]oct-4-yl]propanamide] was tested, and the Kd was 2.2 µM and 3 µM and 2.7 µM and 3.2 µM and 4.3 µM.
In the case of CS(=O)(=O)N[C@H]1[C@H]2OC[C@](CO)(O2)[C@H](O)[C@@H]1O [Compound 26, N-[(1S,2R,3R,4R,5S)-2,3-dihydroxy-1-(hydroxymethyl)-6,8-dioxabicyclo[3.2.1]oct-4-yl]methanesulfonamide], the Kd is reported as 60 µM and 96 µM and 140 µM and 110 µM and 149 µM and 117 µM.
O=C(N[C@H]1[C@H]2OC[C@](CO)(O2)[C@H](O)[C@@H]1O)C(F)F [Compound 27, N-[(1S,2R,3R,4R,5S)-2,3-dihydroxy-1-(hydroxymethyl)-6,8-dioxabicyclo[3.2.1]oct-4-yl]-2,2-difluoroacetamide] was tested, and the Kd was 0.7 µM and 1.9 µM and 1.2 µM and 1 µM and 1.5 µM and 0.5 µM.
With O=C(CC(F)(F)F)N[C@H]1[C@H]2OC[C@](CO)(O2)[C@H](O)[C@@H]1O [Compound 28, N-[(1S,2R,3R,4R,5S)-2,3-dihydroxy-1-(hydroxymethyl)-6,8-dioxabicyclo[3.2.1]oct-4-yl]-3,3,3-trifluoropropanamide] the Kd was 1.2 µM and 1.8 µM and 2.1 µM and 1.4 µM and 2.4 µM and 2.9 µM.
With CC(=O)N(C)[C@H]1[C@H]2OC[C@](CO)(O2)[C@H](O)[C@@H]1O [Compound 29, N-[(1S,2R,3R,4R,5S)-2,3-dihydroxy-1-(hydroxymethyl)-6,8-dioxabicyclo[3.2.1]oct-4-yl]-N-methylacetamide] the Kd was 6.9 µM and 11.6 µM and 8.8 µM and 15.9 µM and 11.7 µM and 6.4 µM.
In the case of CN([C@H]1[C@H]2OC[C@](CO)(O2)[C@H](O)[C@@H]1O)S(C)(=O)=O [Compound 30, N-[(1S,2R,3R,4R,5S)-2,3-dihydroxy-1-(hydroxymethyl)-6,8-dioxabicyclo[3.2.1]oct-4-yl]-N-methylmethanesulfonamide], the Kd is reported as 110 µM and 83 µM and 210 µM and 240 µM and 132 µM and 192 µM.
In the case of CN(C(=O)OC(C)(C)C)[C@H]1[C@H]2OC[C@](CO)(O2)[C@H](O)[C@@H]1O [Compound 31, tert-butyl [(1S,2R,3R,4R,5S)-2,3-dihydroxy-1-(hydroxymethyl)-6,8-dioxabicyclo[3.2.1]oct-4-yl]methylcarbamate], the Kd is reported as 14 µM and 10.6 µM and 15.6 µM and 17.3 µM.
CO[C@H]1OC(CO)(CO)[C@H](O)[C@H](O)[C@H]1NC(C)=O [II-b] was tested, and the Kd was 199 µM and 240 µM and 260 µM and 300 µM.
